Legend:
F1F0-ATPase = target: T1, F1F0-ATPase (Bos taurus, UniProt P13621); test: Inhibition of F1F0-ATPase activity in synthesizing ATP; type: biochemical; conditions: inhibition of ATP synthesis; read-out: ATP Syn IC50
T1 construct: from tissue
Procedure: (§1) The compounds listed in Table 4 were tested for activity against F1F0-ATPase by measuring the ability of the compounds to inhibit ATP synthesis. In addition, the compounds were assessed for cytotoxicity in Ramos cells Inhibition of F1F0-ATPase activity in synthesizing ATP and cytotoxicity in Ramos cells were measured according to the procedures described in K. M. Johnson et al. Chemistry & Biology 2005, 12, 485-496.

Ramos cells = test: Cytotoxicity in Ramos cells; type: cell-based; conditions: Homo sapiens, read-out: Ramos Cell EC50
Procedure: as §1

Row | Structure (SMILES) | IC50 (F1F0-ATPase) | EC50 (Ramos cells)
1 | N#Cc1ccccc1S(=O)(=O)Nc1cccc(N/C(=N\C(=O)c2ccc(Cl)cc2)NCc2ccc(Cl)cc2F)n1 [Compound A-138] | < 10 µM | < 10 µM
2 | CC(C)(C)CN/C(=N/C(=O)c1ccc(Cl)cc1)Nc1cccc(NC(=O)C(C)(C)C)n1 [Compound A-139] | > 10 µM | > 10 µM
3 | CC(=O)Nc1cccc(NC(=NC(=O)c2ccc(Cl)cc2)Nc2cc(F)cc(Cl)c2)n1 [Compound A-140] | < 10 µM | > 10 µM
4 | CC(C)(C)CN/C(=N/C(=O)c1ccc(Cl)cc1)Nc1cccc(NS(=O)(=O)c2ccccc2C#N)n1 [Compound A-141] | < 10 µM | < 10 µM
5 | N#Cc1ccccc1S(=O)(=O)Nc1cccc(NC(=NC(=O)c2ccc(Cl)cc2)Nc2cc(F)cc(Cl)c2)n1 [Compound A-142] | < 10 µM | < 10 µM
6 | CC(=O)Nc1cccc(N/C(=N\C(=O)c2ccc(Cl)cc2)NCC(C)(C)C)n1 [Compound A-143] | < 10 µM | < 10 µM
7 | CC(C)(C)CN/C(=N/C(=O)c1ccc(Cl)cc1)Nc1cccc(NS(=O)(=O)c2cccnc2)n1 [Compound A-144] | < 10 µM | > 10 µM
8 | Cn1cnc(S(=O)(=O)Nc2cccc(N/C(=N\C(=O)c3ccc(Cl)cc3)NCC(C)(C)C)n2)c1 [Compound A-145] | > 10 µM | > 10 µM
9 | Cc1noc(C)c1S(=O)(=O)Nc1cccc(N/C(=N\C(=O)c2ccc(Cl)cc2)NCc2ccc(Cl)cc2F)n1 [Compound A-146] | < 10 µM | < 10 µM
10 | O=C(N=C(Nc1cc(F)cc(Cl)c1)Nc1cccc(NS(=O)(=O)c2cccnc2)n1)c1ccc(Cl)cc1 [Compound A-147] | < 10 µM | < 10 µM
11 | O=C(/N=C(/NCc1ccc(Cl)cc1F)Nc1cccc(NS(=O)(=O)c2cccnc2)n1)c1ccc(Cl)cc1 [Compound A-148] | < 10 µM | < 10 µM
12 | O=C(/N=C(/NCc1ccccc1C(F)(F)F)Nc1cccc(NS(=O)(=O)CC(F)(F)F)n1)c1ccc(F)c(F)c1 [Compound A-149] | < 10 µM | < 10 µM
13 | CCS(=O)(=O)Nc1cccc(N/C(=N\C(=O)c2ccc(F)c(F)c2)NCc2ccccc2C(F)(F)F)n1 [Compound A-150] | < 10 µM | > 10 µM
14 | N#CCS(=O)(=O)Nc1cccc(N/C(=N\C(=O)c2ccc(F)c(F)c2)NCc2ccccc2C(F)(F)F)n1 [Compound A-151] | < 10 µM | < 10 µM

From US9370507B2, “Pyridonyl guanidine F1F0-ATPase inhibitors and therapeutic uses thereof” (Lycera Corporation, priority 2010, dated 2016)
